Reference: paper PMC4724192 (Biochemistry, 2014)
“And” between values parts separate entries of the source, which are not always exact repeats. Equal values may be shown once. Read-outs that look alike come from different tables or passages of the source. One block for each molecule: values may come before it.

Key:
[1] = test system: ERK2; conditions: read-out: IC50 Published previously; cited from earlier work
[2] = molecular target: T1, 2P-ERK2 (Rattus norvegicus, UniProt P63086); assay: Preincubation / 300-fold dilution experiment, recovery of activity; conditions: for kinetic behaviour of binding and release: linear product accumulation, rapid recovery on dilution
[3] = molecular target: T1, 2P-ERK2; conditions: for mode of inhibition (Lineweaver-Burk replots): 2P-ERK2, varying ATP; for Ki: 2P-ERK2, rapid on/off inhibitors, varying ATP, 20 μM sub-D
[4] = molecular target: T1, 2P-ERK2; conditions: read-out: IC50 This study; 2P-ERK2, 20 μM sub-D, 100 μM ATP, 25 °C; eq 1
[5] = molecular target: T1, 2P-ERK2; format: biochemical
[6] = molecular target: T1, 2P-ERK2; assay: Morrison titration experiment for tight-binding inhibitors; format: biochemical
[7] = molecular target: ERK; conditions: read-out: Kd in vitro; cited from earlier work
[8] = test system: ERK; conditions: read-out: IC50 in vivo (biological activity); cited from earlier work
[9] = molecular target: 0P-ERK2 (Rattus norvegicus, UniProt P63086); assay: biochemical
Chain of 0P-ERK2 (P63086 whole entry): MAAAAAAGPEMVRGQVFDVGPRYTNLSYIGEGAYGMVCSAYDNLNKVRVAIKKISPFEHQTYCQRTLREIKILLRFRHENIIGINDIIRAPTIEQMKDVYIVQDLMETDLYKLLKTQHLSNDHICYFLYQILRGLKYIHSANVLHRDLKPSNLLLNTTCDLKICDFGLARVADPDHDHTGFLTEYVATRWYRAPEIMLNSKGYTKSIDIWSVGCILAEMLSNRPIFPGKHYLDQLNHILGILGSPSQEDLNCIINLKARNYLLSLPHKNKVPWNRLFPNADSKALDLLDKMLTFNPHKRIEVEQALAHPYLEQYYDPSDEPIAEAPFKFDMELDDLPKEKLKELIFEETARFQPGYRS

T1 sequence (P63086 whole entry): as above

SMILES: Nc1[nH]nc2nnc(-c3c(-c4ccccc4)nn4ccccc34)cc12 [FR180204]
IC50 [1]: 140 nM | kon (rate constant for association), lower bound ([2]; 2P-ERK2, inferred from dissociation rate constant >0.05 s^−1): >0.8 ^d μM^−1 s^−1 | kinetic behaviour of binding and release ([2]; 2P-ERK2): rapid on/off inhibitors | mode of inhibition (Lineweaver-Burk replots) [3]: competitive versus ATP | Ki [3]: 63 ± 17 nM | IC50 [4]: 330 ± 64 nM

kinetic behaviour of binding and release ([2]; 2P-ERK2): rapid on/off inhibitors | mode of inhibition (Lineweaver-Burk replots) [3]: competitive versus ATP | Ki [3]: 10800 nM | IC50 [4]: 33000 nM
SMILES: Cn1cnc2c(NCc3ccccc3)nc(NCCO)nc21 [Olomoucin]

SMILES: Nc1nccc(-c2c(-c3ccc(F)cc3)ncn2C2CCNCC2)n1 [SB220025]
kinetic behaviour of binding and release ([2]; 2P-ERK2): rapid on/off inhibitors

SMILES: O=C(Nc1ccc2[nH]nc(-c3ccncc3)c2c1)[C@@H]1CCN(CC(=O)N2CCN(c3ccc(-c4ncccn4)cc3)CC2)C1 [SCH772984]
kinetic behaviour of onset of inhibition ([5]; 2P-ERK2, curved product accumulation): slow-onset inhibition | kon ([5]; read-out: kon (apparent rate constant for association)): 2.8e+06 ± 340000 M⁻¹ s⁻¹ | Ki [6]: 0.12 ± 0.1 nM | IC50 [1]: 0.24 nM | Kd [7]: 0.19 nM | IC50 [8]: < 100 nM and 60 nM | Ki [9]: 0.12 ± 0.04 nM | Kd [2]: 0.11 ± 0.021 nM | residence time (inverse of koff) ([2]; 2P-ERK2, predicted from koff): 0.9 h | koff ([2]; read-out: koff (dissociation rate constant)): 0.000306 s⁻¹
